{"source": "patent EP1994938A1", "about": "“New lipoglycodepsipeptide compositions” (priority 2007, dated 2008)", "key": {"[1]": {"test_system": "Enterococcus faecalis ATCC 29212", "test": "Broth microdilution MIC (CLSI), Ca2+ adjusted Mueller Hinton broth with 4% human serum albumin", "type": "cell-based", "experimental": "(§1) Herein, the minimum inhibitory concentration for the growth inhibition was determined by cultivation of the bacteria in Ca^2+ adjusted Mueller Hinton broth (broth microdilution method) according to the CLSI (previously NCCLS) rules (National Committee for Clinical Laboratory Standards. 2003. Methods for dilution antimicrobial susceptibility tests for bacteria that grow aerobically; approved standard - 6th ed. Document M7-A6. Clinical and Laboratory Standards Institute, Wayne, PA, USA). […] The Gram-positive strains tested for the cultivation methods were: • Staphylococcus aureus ATCC 29213 • Enterococcus faecalis ATCC 29212\n(§2) The following inocula were incubated: Table 3"}, "[2]": {"test_system": "Staphylococcus aureus ATCC 29213", "test": "Broth microdilution MIC (CLSI), Ca2+ adjusted Mueller Hinton broth with 4% human serum albumin", "type": "cell-based", "experimental": "as §1, §2"}, "[3]": {"test_system": "Streptococcus spp., Staphylococcus spp. and Enterococcus spp.", "conditions": "including antibiotic resistant strains (VRE, MRSA); cited from earlier work"}, "[4]": {"conditions": "fat emulsion formulation with an oil phase of 8%; cited from earlier work"}}}
{"substance": "ramoplanin", "values": [{"measurement": "Antibiotic activity (MIC)", "setting": "[1]; Ramoplanin : SBE-β-CD 1:0", "result": 0.5, "unit": "µg/mL"}, {"measurement": "Antibiotic activity (MIC)", "setting": "[1]; Ramoplanin : SBE-β-CD 1:2", "result": 0.5, "unit": "µg/mL"}, {"measurement": "Antibiotic activity (MIC)", "setting": "[1]; Ramoplanin : SBE-β-CD 1:10", "result": 0.5, "unit": "µg/mL"}, {"measurement": "Antibiotic activity (MIC)", "setting": "[2]; Ramoplanin : SBE-β-CD 1:0", "result": 0.5, "unit": "µg/mL"}, {"measurement": "Antibiotic activity (MIC)", "setting": "[2]; Ramoplanin : SBE-β-CD 1:2", "result": 0.5, "unit": "µg/mL"}, {"measurement": "Antibiotic activity (MIC)", "setting": "[2]; Ramoplanin : SBE-β-CD 1:10", "result": 0.5, "unit": "µg/mL"}, {"measurement": "general MICs (Minimal Inhibition Concentrations)", "setting": "[3]", "result": "below 1 µg/ml"}, {"measurement": "effectiveness in septicaemia mouse models", "setting": "[4]", "result": "effective"}]}
